Measured values published in the supplement of paper PMC10627819.

How the values were obtained:
Assay in all cases: Bliss interaction score (quartile over a dose matrix) (fitness difference); higher = more antagonism (negative = synergy)
S. aureus Newman = test system: S. aureus Newman
Summary of the method: (§1)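 Each OD595 reading at entry into stationary phase was scaled to the robust mean of the untreated wells on its plate, with a ceiling of 1. These ratios define fitness, and single-drug fitness was inferred from combinations. The Bliss score compares observed fitness with the product-based expectation and is reported as quartiles across all replicate types, technical, biological and donor/recipient.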

S. aureus DSM 20231 = test system: S. aureus DSM 20231
Summary of the method: as §1

B. subtilis 168 = test system: B. subtilis 168
Summary of the method: as §1

S. pneumoniae D39V = test system: S. pneumoniae D39V
Summary of the method: as §1
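Also: first quartile when negative (synergy) and third quartile when positive (antagonism).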

Compound | Bliss interaction score (S. aureus Newman) | Bliss interaction score (S. aureus DSM 20231) | Bliss interaction score (B. subtilis 168) | Bliss interaction score (S. pneumoniae D39V) | Bliss interaction score (S. aureus Newman; main component drawn) | Bliss interaction score (S. aureus DSM 20231; main component drawn) | Bliss interaction score (B. subtilis 168; main component drawn) | Bliss interaction score (S. pneumoniae D39V; main component drawn)
CC(=O)OC[C@H]1O[C@@H]([S-])[C@H](OC(C)=O)[C@@H](OC(C)=O)[C@@H]1OC(C)=O.CCP(CC)CC.[Au+] [Auranofin] + CC(=O)O[C@H]1C[C@@]2(C)[C@@H](C[C@@H](O)[C@H]3[C@@]4(C)CC[C@@H](O)[C@@H](C)[C@@H]4CC[C@@]32C)/C1=C(\CCC=C(C)C)C(=O)O [Fusidic acid] | 0.0311 | 0.019 | 0.0389 | -0.0761 | – | – | – | –
CC(=O)OC[C@H]1O[C@@H]([S-])[C@H](OC(C)=O)[C@@H](OC(C)=O)[C@@H]1OC(C)=O.CCP(CC)CC.[Au+] [Auranofin] + CC(C1CCC(C(O1)OC2C(CC(C(C2O)OC3C(C(C(CO3)(C)O)NC)O)N)N)N)NC [Gentamicin] | – | – | – | – | 0.0898 | 0.0359 | -0.0544 | -0.0834
CC(=O)OC[C@H]1O[C@@H]([S-])[C@H](OC(C)=O)[C@@H](OC(C)=O)[C@@H]1OC(C)=O.CCP(CC)CC.[Au+] [Auranofin] + CCC(C)C1C(=O)NC(=C)C(=O)NC(C(=O)NC(CSCC(C(=O)N1)NC(=O)/C(=C/C)/NC(=O)C(C(C)CC)N)C(=O)NC2C(SCC(NC(=O)CNC(=O)C3CCCN3C2=O)C(=O)NC(CCCCN)C(=O)NC4C(SCC(NC(=O)CNC(=O)C(NC(=O)C(NC(=O)C(NC(=O)CNC4=O)C)CC(C)C)CCSC)C(=O)NC(CC(=O)N)C(=O)NC(CCSC)C(=O)NC(CCCCN)C(=O)NC5C(SCC6C(=O)NC(C(=O)NC(CSC(C(C(=O)N6)NC(=O)C(NC5=O)C)C)C(=O)NC(CO)C(=O)NC(C(C)CC)C(=O)NC(CC7=CN=CN7)C(=O)NC(C(C)C)C(=O)NC(=C)C(=O)NC(CCCCN)C(=O)O)CC8=CN=CN8)C)C)C)CC(C)C [Nisin] | – | – | – | – | 0.0274 | -0.0361 | -0.0321 | -0.0798
CC(=O)OC[C@H]1O[C@@H]([S-])[C@H](OC(C)=O)[C@@H](OC(C)=O)[C@@H]1OC(C)=O.CCP(CC)CC.[Au+] [Auranofin] + CCCCCCCCCC(=O)N[C@@H]1[C@H]([C@@H]([C@H](O[C@H]1OC2=C3C=C4C=C2OC5=C(C=C(C=C5)[C@H]([C@H]6C(=O)N[C@@H](C7=C(C(=CC(=C7)O)OC8[C@H]([C@H]([C@@H]([C@H](O8)CO)O)O)O)C9=C(C=CC(=C9)[C@H](C(=O)N6)NC(=O)[C@@H]4NC(=O)[C@@H]1C2=CC(=CC(=C2)OC2=C(C=CC(=C2)[C@H](C(=O)N[C@H](CC2=CC(=C(O3)C=C2)Cl)C(=O)N1)N)O)O)O)C(=O)O)O[C@H]1[C@@H]([C@H]([C@@H]([C@H](O1)CO)O)O)NC(=O)C)Cl)CO)O)O [Teicoplanin] | – | – | – | – | 0.0303 | 0.0469 | -0.0433 | 0.0761
CC(=O)OC[C@H]1O[C@@H]([S-])[C@H](OC(C)=O)[C@@H](OC(C)=O)[C@@H]1OC(C)=O.CCP(CC)CC.[Au+] [Auranofin] + CCC[C@@H]1C[C@@H](C(=O)N[C@@H]([C@H]2O[C@H](SC)[C@H](O)[C@@H](O)[C@H]2O)[C@@H](C)O)N(C)C1 [Lincomycin] | 0.0853 | 0.0235 | 0.066 | -0.0496 | – | – | – | –
CC(=O)OC[C@H]1O[C@@H]([S-])[C@H](OC(C)=O)[C@@H](OC(C)=O)[C@@H]1OC(C)=O.CCP(CC)CC.[Au+] [Auranofin] + CCC[C@@H]1C[C@@H](C(=O)N[C@@H]([C@H]2O[C@H](SC)[C@H](O)[C@@H](O)[C@H]2O)[C@H](C)Cl)N(C)C1 [Clindamycin] | 0.0741 | 0.0307 | 0.0424 | 0.0341 | – | – | – | –
CC(=O)OC[C@H]1O[C@@H]([S-])[C@H](OC(C)=O)[C@@H](OC(C)=O)[C@@H]1OC(C)=O.CCP(CC)CC.[Au+] [Auranofin] + CCN(CC)CCOC(=O)c1ccc(N)cc1 [Procaine] | -0.0631 | -0.0516 | -0.0372 | -0.0391 | – | – | – | –
CC(=O)OC[C@H]1O[C@@H]([S-])[C@H](OC(C)=O)[C@@H](OC(C)=O)[C@@H]1OC(C)=O.CCP(CC)CC.[Au+] [Auranofin] + CC[C@H]1OC(=O)[C@H](C)C(=O)[C@H](C)[C@@H](O[C@@H]2O[C@H](C)C[C@H](N(C)C)[C@H]2O)[C@](C)(OC)C[C@@H](C)C(=O)[C@H](C)[C@H]2N(CCCCn3cnc(-c4cccnc4)c3)C(=O)O[C@]12C [Telithromycin] | 0.0309 | 0.0187 | -0.0304 | 0.0324 | – | – | – | –
CC(=O)OC[C@H]1O[C@@H]([S-])[C@H](OC(C)=O)[C@@H](OC(C)=O)[C@@H]1OC(C)=O.CCP(CC)CC.[Au+] [Auranofin] + CC[C@H]1OC(=O)[C@H](C)[C@@H](O[C@H]2C[C@@](C)(OC)[C@@H](O)[C@H](C)O2)[C@H](C)[C@@H](O[C@@H]2O[C@H](C)C[C@H](N(C)C)[C@H]2O)[C@](C)(O)C[C@@H](C)C(=O)[C@H](C)[C@@H](O)[C@]1(C)O [Erythromycin] | 0.0459 | 0.0169 | 0.0564 | 0.0643 | – | – | – | –
